Counter-ions that a name gives are not always drawn.
Experiments:
[1] = Stability studies of solid forms in sealed polyethylene bags (appearance, LC-UV, Karl Fischer water, XRPD); type: physicochemical; settings: for Overall outcome of stability testing, in words: 25° C./60% RH and 40° C./75% RH; for Physical form: XRPD
Procedure: The substances were packed individually in sealed polyethylene bags, with a carton box as a secondary packaging material. During stability the different batches were tested for visual appearance, assay (anhydrous i.e. calculated as water free compound), impurities and water content. In addition, XRPD was been performed as described in Example 3 at selected time points.
LC-UV was run on Agilent HPLC consisting of Agilent 1200 HPLC or equivalent including autosampler and DAD detector (operating at 278 nm).
LC-conditions: The column was Synergi Polar-RP 4 μm; 4.6×150 mm operating at 40° C. with 1.0 ml/min of a binary gradient consisting of water/acetonitrile+[…] (90:10) (A) and water/acetonitrile+[…] (35:65) (B).
(§1) The amount of impurities was determined as % area of the peak of impurity relative to the area of the main peak.
The water content was determined by coulometric Karl Fischer titration according to the European Pharmacopoeia, chapter 2.5.32 (Metrohm 874 Oven Sample Processor and Metrohm 851 KF Coulometer). The water content was evaporated by heating samples to 150° C. and the water vapor was transferred by nitrogen to the titration chamber where it was titrated to endpoint using Hydranal Coulomat AG Oven (article number 34739) titration reagent.

[2] = Dynamic vapor sorption (DVS); type: physicochemical; settings: for Hygroscopicity / behaviour towards humidity (DVS), in words: DH1: 5-80% RH, HH: 20-95% RH, K^+ salt: two cycles
Procedure: Dynamic vapor sorption (DVS) was further used to evaluate selected solid forms. Hygroscopicity and dehydration behavior can be investigated by DVS analysis. DVS experiments were performed using a DVS Advantage 01 instrument from Surface Measurement Systems. Samples of 4-10 mg of the solid forms were used for the analysis. […]

[3] = Stress stability, open dishes in the dark, LC-UV impurities; type: physicochemical; settings: open dish, % area by LC-UV
Procedure: For the stress stability studies, the substances were stored in open dishes in the dark at 40° C./75% RH, 60° C. and 60° C./80% RH.
as §1
The stress stability testing was performed as described above, and the amount of degradation products were determined based on the LC-UV method described above.

[4] = Grinding, pressure and milling followed by XRPD; type: physicochemical; settings: for Crystallinity by XRPD after pressure: DH1: 300 PSI for 5 minutes, K^+ salt: IR-press for 5 minutes; for Crystallinity by XRPD after grinding: grinded by hand with mortar and pestle; for Crystallinity by XRPD after subsequent storage of treated sample: 95% RH for 1 week
Procedure: A sample of the heptahydrate was grinded by hand using mortar and pestle for 2 minutes, and subsequently analyzed by XRPD. […] The samples were analysed by XRPD after the treatment. Subsequently, the samples were placed at 95% RH for 1 week and reanalysed by XRPD.

rat locomotor activity = assay: Rat locomotor activity (hyperactivity) assay, open field, with PK/PD; type: in vivo
Procedure: Mass spectrometer (UPCLC-MS/MS) Waters Acquity I-Class-Waters Xevo TQ-S. Analytical column Acquity HSS T3 C18 50×2.1 mm, 1.8 μm. Mobile phase A: 10 mM NH4—Formate 0.2% formic acid:Acetonitril (95:5). Mobile phase B: 10 mM NH4—Formate 0.2% formic acid:Acetonitril (5:95). Gradient run from 95/5% to 5/95% in 2.40 minutes. Flow rate 0.3 mL/min. MRM detection of test items and the added analytical standards.
Animals for the study were as described in Example 10. Additionally, rats were administered a single dose of apomorphine subcutaneously.
In total, 206 male CD rats (Charles River, Germany) weighing 200-250 grams (165-190 grams upon arrival) were used in the study. Animals were housed at a standard temperature (22±1° C.) and in a light-controlled environment (lights on from 7 am to […]) with ad libitum access to food and water. The experiment described below was performed in accordance with the standard operating procedures of Charles River Discovery Research Services Finland Ltd. and in accordance with the national Animal Experiment Board of Finland (Eläinkoelautakunta, ELLA) authority on animal testing.
The test device is a square Plexiglass-arena (measuring 40×40×40 cm), in which the movement paths of the rats are recorded by an activity monitor (Med. Associates Inc.). Before the test period is initiated, rats are habituated to their test cage for 60 minutes. Upon completion of habituation, animals were treated with either compound or vehicle and placed back into the open field apparatus. The main test parameter measured is ambulatory distance (recorded in 5-minute segments). Overall time of measurement after receiving initial treatment was 360 minutes. Total follow up period in the study was 420 min, including 60 min of habituation.

Compound | Water content, % ([1]; 25° C./60% RH, 6 months) [%] | Physical form ([1]; 25° C./60% RH, 6 months) | Water content, % ([1]; 25° C./60% RH, Initial) [%] | Physical form ([1]; 25° C./60% RH, Initial) | Water content, % ([1]; 40° C./75% RH, 6 months) [%] | Physical form ([1]; 40° C./75% RH, 6 months) | Water content, % ([1]; 40° C./75% RH, Initial) [%] | Physical form ([1]; 40° C./75% RH, Initial) | Hygroscopicity / behaviour towards humidity (DVS), in words [2] | Crystallinity by XRPD after pressure [4] | Crystallinity by XRPD after grinding [4] | Water content, % ([1]; 25° C./60% RH, 3 months) [%] | Water content, % ([1]; 25° C./60% RH, 9 months) [%] | Physical form ([1]; 25° C./60% RH, 9 months) | Water content, % ([1]; 25° C./60% RH, 18 months) [%] | Water content, % ([1]; 40° C./75% RH, 3 months) [%] | also measured
CCCN1CCC[C@@H]2Cc3c(ccc(O)c3O[C@@H]3O[C@H](C(=O)O)[C@@H](O)[C@H](O)[C@H]3O)C[C@H]21 [DH1, (2S,3S,4S,5R,6S)-3,4,5-trihydroxy-6-(((4aR,10aR)-7-hydroxy-1-propyl-1,2,3,4,4a,5,10,10a-octahydrobenzo[g]quinolin-6-yl)oxy)tetrahydro-2H-pyran-2-carboxylic acid] | 7.6 | DH1 | 7.6 | DH1 | 7.5 | DH1 | 7.6 | DH1 | non-hygroscopic | did not show sign of decreased crystallinity | did not show sign of decreased crystallinity | – | – | – | – | – | Overall outcome of stability testing, in words ([1]; listed as dihydrate): no changes in appearance, water content or physical form (XRPD); Water content, % ([1]; 25° C./60% RH, 4 months): 7.6%; Physical form ([1]; 25° C./60% RH, 4 months): DH1; Water content, % ([1]; 25° C./60% RH, 10 months): 7.4%; Water content, % ([1]; 40° C./75% RH, 4 months): 7.4%; Physical form ([1]; 40° C./75% RH, 4 months): DH1; Water absorbed or desorbed (DVS) ([2]; humidity range 5-90% RH): Less than 0.1%; Total sum of impurities after 6 months storage ([3]; 40° C./75% RH, listed as Dihydrate): 0.05%; Total sum of impurities after 6 months storage ([3]; 60° C., listed as Dihydrate): 1.0%; Total sum of impurities after 6 months storage ([3]; 60° C./80% RH, listed as Dihydrate): 0.05%; Crystallinity by XRPD after milling ([4]; milled vs un-milled material): no apparent change in crystallinity
CCCN1CCC[C@@H]2Cc3c(ccc(O)c3O[C@@H]3O[C@H](C(=O)O)[C@@H](O)[C@H](O)[C@H]3O)C[C@H]21 [HH, (2S,3S,4S,5R,6S)-3,4,5-trihydroxy-6-(((4aR,10aR)-7-hydroxy-1-propyl-1,2,3,4,4a,5,10,10a-octahydrobenzo[g]quinolin-6-yl)oxy)tetrahydro-2H-pyran-2-carboxylic acid] | 20.0 | – | 21.6 | – | 7.6 | – | 21.6 | – | absorbs and desorbs water at humidity between 20% RH and 95% RH without changing the crystal form | – | – | 22.3 | 21.6 | Form C | 20.9 | 7.6 | Overall outcome of stability testing, in words [1]: Changes in visual appearance, water content and physical form (XRPD) were seen; Water content, % ([1]; 25° C./60% RH, 12 months): 15.0%; Physical form ([1]; 40° C./75% RH, 3 months): DH1; Behaviour at low humidity (DVS), in words ([2]; humidity below 20%): changes into other less hydrated forms; Total sum of impurities after 6 months storage ([3]; 40° C./75% RH, listed as Heptahydrate): <0.05%; Total sum of impurities after 6 months storage ([3]; 60° C., listed as Heptahydrate): 4.3%; Total sum of impurities after 6 months storage ([3]; 60° C./80% RH, listed as Heptahydrate): <0.05%; Crystallinity by XRPD after subsequent storage of treated sample ([4]; listed as heptahydrate): regained crystallinity after storage; Crystallinity by XRPD after grinding ([4]; listed as heptahydrate): reflections became a bit broader and an amorphous halo became visible
CCCN1CCC[C@@H]2Cc3c(ccc(O)c3O[C@@H]3O[C@H](C(=O)O)[C@@H](O)[C@H](O)[C@H]3O)C[C@H]21 [K^+ salt, (2S,3S,4S,5R,6S)-3,4,5-trihydroxy-6-(((4aR,10aR)-7-hydroxy-1-propyl-1,2,3,4,4a,5,10,10a-octahydrobenzo[g]quinolin-6-yl)oxy)tetrahydro-2H-pyran-2-carboxylic acid] | 0.17 | Alfa form | 0.11 | Alfa form | 0.25 | Alfa form | 0.11 | Alfa form | stable towards change in humidity | some broadening of the XRPD reflections | severe broadening of the XRPD reflections | 0.22 | <0.10 | Alfa form | 0.23 | 0.38 | Overall outcome of stability testing, in words ([1]; listed as potassium salt): remained in the same physical form; Water content, % ([1]; 25° C./60% RH, 13 months): <0.10%; Physical form ([1]; 25° C./60% RH, 13 months): Alfa form; Physical form ([1]; 25° C./60% RH, 18 months): Alfa form; Weight change (DVS) ([2]; at 80% RH): up to 0.6%; Further weight change (DVS) ([2]; at 90% RH): 1%; Total sum of impurities after 6 months storage ([3]; 40° C./75% RH, listed as Potassium salt): 0.10%; Total sum of impurities after 6 months storage ([3]; 60° C., listed as Potassium salt): 0.10%; Total sum of impurities after 6 months storage ([3]; 60° C./80% RH, listed as Potassium salt): 1.0%; Crystallinity by XRPD after subsequent storage of treated sample [4]: regained crystallinity after storage at high humidity
CN1CCc2cccc3c2[C@H]1Cc1ccc(O)c(O)c1-3 [apomorphine, reference compound] | – | – | – | – | – | – | – | – | – | – | – | – | – | – | – | – | Relationship of behavioral effect and plasma concentration (rat locomotor activity; (Id) 100 μg/kg p.o. (FIG. 4), apomorphine 3 mg/kg s.c. (FIG. 5)): correlation between plasma concentrations of apomorphine and hyperactive behavior; Start of locomotor effect post-administration (rat locomotor activity; (Id) 10 to 300 μg/kg p.o., apomorphine 3 mg/kg s.c., pramipexole 0.3 mg/kg s.c., FIG. 2): immediate; Time post administration at which hyperactivity is gone (rat locomotor activity; apomorphine 3 mg/kg s.c., 150-minute time point): 1.5 h
